Results from PubChem BioAssay AID234 (DTP/NCI, 2004).
Values joined by “and” are separate entries in the source; they are usually repeats but may differ in a detail not shown here. Equal values may be shown once. Inconclusive results are not listed.

Test system: C3AKF1 mice, hamster liver cystadenocarcinoma s.c., tumor weight T/C
Assay: NCI In Vivo Anticancer Drug Screen. Data for tumor model Cystadenocarcinoma, Liver (No. 1) (Hamster) (subcutaneous) in C3AKF1 (CHKRF1) mice
Details: endpoint: mean tumor weight, higher = larger tumour
Description: The antitumor activity of compounds was measured in mice bearing transplantable tumors. Survival or tumor size were measured and the results are expressed as the measurement made in the treated group (T) divided by the measurement made in the vehicle treated control group (C). The tumor model used in this assay is Cystadenocarcinoma, Liver (No. 1) (Hamster) (subcutaneous) in C3AKF1 (CHKRF1) mice

[1] = dose: 50.0 mg/kg/injection, schedule: Q01DX010 (ip), vehicle: carboxymethylcellulose (CMC)
[2] = dose: 100.0 mg/kg/injection, schedule: Q01DX010 (ip), vehicle: carboxymethylcellulose (CMC)
[3] = dose: 10.0 mg/kg/injection, schedule: Q01DX010 (ip), vehicle: carboxymethylcellulose (CMC)
[4] = dose: 20.0 mg/kg/injection, schedule: Q01DX010 (ip), vehicle: carboxymethylcellulose (CMC)
[5] = dose: 40.0 mg/kg/injection, schedule: Q01DX010 (ip), vehicle: carboxymethylcellulose (CMC)
[6] = dose: 62.5 mg/kg/injection, schedule: Q01DX010 (ip), vehicle: carboxymethylcellulose (CMC)
[7] = dose: 125.0 mg/kg/injection, schedule: Q01DX010 (ip), vehicle: carboxymethylcellulose (CMC)
[8] = dose: 25.0 mg/kg/injection, schedule: Q01DX010 (ip), vehicle: carboxymethylcellulose (CMC)
[9] = dose: 37.5 mg/kg/injection, schedule: Q01DX010 (ip), vehicle: carboxymethylcellulose (CMC)
[10] = dose: 75.0 mg/kg/injection, schedule: Q01DX010 (ip), vehicle: carboxymethylcellulose (CMC)
[11] = dose: 24.0 mg/kg/injection, schedule: Q01DX010 (ip), vehicle: saline

SMILES: ClCCn1cnc2c(SCc3ccccc3)ncnc21
- T/C [1]: 75 % of control
- T/C [2]: 84 % of control and 97 % of control
- T/C (dose: 200.0 mg/kg/injection, schedule: Q01DX010 (ip), vehicle: carboxymethylcellulose (CMC)): 86 % of control and 89 % of control
- T/C (dose: 400.0 mg/kg/injection, schedule: Q01DX010 (ip), vehicle: carboxymethylcellulose (CMC)): 68 % of control and 80 % of control
- T/C (dose: 600.0 mg/kg/injection, schedule: Q01DX010 (ip), vehicle: carboxymethylcellulose (CMC)): 73 % of control

SMILES: O=C1C=CC(=O)O1 (tested in a mixture with another compound)
- T/C (dose: 1.5 mg/kg/injection, schedule: Q#A X020 (ip), vehicle: carboxymethylcellulose (CMC)): 68 % of control
- T/C (dose: 3.5 mg/kg/injection, schedule: Q#A X020 (ip), vehicle: carboxymethylcellulose (CMC)): 82 % of control
- T/C (dose: 7.5 mg/kg/injection, schedule: Q#A X010 (ip), vehicle: carboxymethylcellulose (CMC)): 91 % of control
- T/C (dose: 62.5 mg/kg/injection, schedule: Q#A X010 (ip), vehicle: carboxymethylcellulose (CMC)): 77 % of control

SMILES: CCCC(Sc1nc(N)nc2nc[nH]c12)C(=O)O (stereo not drawn)
- T/C [3]: 66 % of control
- T/C [4]: 103 % of control
- T/C [5]: 123 % of control
- T/C (dose: 80.0 mg/kg/injection, schedule: Q01DX010 (ip), vehicle: carboxymethylcellulose (CMC)): 116 % of control and 118 % of control
- T/C (dose: 160.0 mg/kg/injection, schedule: Q01DX010 (ip), vehicle: carboxymethylcellulose (CMC)): 76 % of control

SMILES: CCC[CH2][Sn]1([CH2]CCC)[O]C(=O)C[S]1
- T/C (dose: 0.39 mg/kg/injection, schedule: Q01DX010 (ip), vehicle: saline): 113 % of control
- T/C (dose: 0.78 mg/kg/injection, schedule: Q01DX010 (ip), vehicle: saline): 110 % of control
- T/C (dose: 1.56 mg/kg/injection, schedule: Q01DX010 (ip), vehicle: saline): 66 % of control

SMILES: Nc1ccc2ccccc2c1N=Nc1ccccc1
- T/C [6]: 73 % of control
- T/C [7]: 79 % of control

SMILES: CCCCCCCCCCCCCS
- T/C [8]: 100 % of control
- T/C [1]: 69 % of control
- T/C [2]: 90 % of control

SMILES: CCOC(=O)C(Cc1ccc(N(CCCl)CCCl)cc1)NC=O (stereo not drawn)
- T/C [3]: 93 % of control
- T/C [4]: 93 % of control
- T/C [5]: 55 % of control

SMILES: O=c1[nH]c2cc(Cl)c(Cl)cc2o1
- T/C (dose: 9.5 mg/kg/injection, schedule: Q01DX010 (ip), vehicle: carboxymethylcellulose (CMC)): 119 % of control
- T/C (dose: 19.0 mg/kg/injection, schedule: Q01DX010 (ip), vehicle: carboxymethylcellulose (CMC)): 104 % of control
- T/C [9]: 95 % of control and 107 % of control
- T/C [10]: 98 % of control

SMILES: O=P(c1ccccc1)(N1CC1)N1CC1
- T/C (dose: 3.0 mg/kg/injection, schedule: Q01DX010 (ip), vehicle: saline): 108 % of control
- T/C (dose: 6.0 mg/kg/injection, schedule: Q01DX010 (ip), vehicle: saline): 98 % of control
- T/C (dose: 12.0 mg/kg/injection, schedule: Q01DX010 (ip), vehicle: saline): 76 % of control
- T/C [11]: 212 % of control

SMILES: O=C1N(Cl)C(=O)C(c2ccc(Cl)cc2)(c2ccc(Cl)cc2)N1Cl
- T/C (dose: 15.0 mg/kg/injection, schedule: Q01DX010 (ip), vehicle: carboxymethylcellulose (CMC)): 67 % of control
- T/C (dose: 30.0 mg/kg/injection, schedule: Q01DX010 (ip), vehicle: carboxymethylcellulose (CMC)): 85 % of control
- T/C (dose: 60.0 mg/kg/injection, schedule: Q01DX010 (ip), vehicle: carboxymethylcellulose (CMC)): 61 % of control

SMILES: C=CCNc1ccc(C)cc1
- T/C (dose: 85.0 mg/kg/injection, schedule: Q01DX010 (ip), vehicle: saline): 64 % of control
- T/C (dose: 125.0 mg/kg/injection, schedule: Q01DX010 (ip), vehicle: saline): 91 % of control
- T/C (dose: 185.0 mg/kg/injection, schedule: Q01DX010 (ip), vehicle: saline): 78 % of control

SMILES: CC(C)(c1ccccc1)c1ccc(O)cc1
- T/C [9]: 79 % of control

SMILES: CS(=O)(=O)OCC(=O)NCCNC(=O)COS(C)(=O)=O
- T/C [4]: 105 % of control
- T/C [5]: 100 % of control

SMILES: O=C(C[N+]12CN3CN(CN(C3)C1)C2)c1ccc(Cl)cc1
- T/C [9]: 99 % of control
- T/C [10]: 109 % of control
- T/C (dose: 150.0 mg/kg/injection, schedule: Q01DX010 (ip), vehicle: carboxymethylcellulose (CMC)): 90 % of control
- T/C (dose: 300.0 mg/kg/injection, schedule: Q01DX010 (ip), vehicle: carboxymethylcellulose (CMC)): 69 % of control

SMILES: NC(Cc1ccc(N(CCCl)CCCl)cc1)C(=O)O (stereo not drawn)
- T/C (dose: 1.0 mg/kg/injection, schedule: Q01DX010 (ip), vehicle: carboxymethylcellulose (CMC)): 67 % of control
- T/C (dose: 1.25 mg/kg/injection, schedule: Q01DX010 (ip), vehicle: carboxymethylcellulose (CMC)): 70 % of control
- T/C (dose: 2.0 mg/kg/injection, schedule: Q01DX010 (ip), vehicle: carboxymethylcellulose (CMC)): 86 % of control
- T/C (dose: 2.5 mg/kg/injection, schedule: Q01DX010 (ip), vehicle: carboxymethylcellulose (CMC)): 65 % of control
- T/C (dose: 4.0 mg/kg/injection, schedule: Q01DX010 (ip), vehicle: carboxymethylcellulose (CMC)): 52 % of control
- T/C (dose: 5.0 mg/kg/injection, schedule: Q01DX010 (ip), vehicle: carboxymethylcellulose (CMC)): 82 % of control

SMILES: COC(=O)[C@@H]1c2cc3c(c(O)c2[C@@H](OC2OC(C)C(OC)C(C)(OC)C2OC)C[C@]1(C)O)C(=O)c1c(O)cc2c(c1C3=O)O[C@H]1O[C@]2(C)[C@H](O)[C@@H](N(C)C)[C@@H]1O (stereo partly drawn)
- T/C (dose: 0.25 mg/kg/injection, schedule: Q01DX010 (ip), vehicle: saline): 103 % of control

SMILES: CN(C)Nc1ncnc2nc[nH]c12
- T/C [4]: 107 % of control
- T/C [5]: 102 % of control

SMILES: O=C(NO)c1ccncc1
- T/C (dose: 250.0 mg/kg/injection, schedule: Q01DX010 (ip), vehicle: saline): 80 % of control
- T/C (dose: 500.0 mg/kg/injection, schedule: Q01DX010 (ip), vehicle: saline): 78 % of control
- T/C (dose: 750.0 mg/kg/injection, schedule: Q01DX010 (ip), vehicle: saline): 76 % of control

SMILES: C/C=C1\CN(C)[C@H]2Cc3c([nH]c4ccccc34)[C@@H](c3cc4[nH]c5c(c4cc3OC)CCN3C[C@H]4C[C@H](CC)[C@H]3[C@@]5(C(=O)OC)C4)C[C@H]1C2C(=O)OC (stereo partly drawn)
- T/C (dose: 30.0 mg/kg/injection, schedule: Q01DX010 (ip), vehicle: water): 70 % of control

SMILES: S=C(N=Nc1ccccc1)NNc1ccccc1
- T/C [9]: 98 % of control

SMILES: CCN(CC)CCNc1ccc([N+](=O)[O-])c2sc3ccccc3c(=O)c12
- T/C (dose: 20.0 mg/kg/injection, schedule: Q01DX010 (ip), vehicle: saline): 98 % of control
- T/C (dose: 40.0 mg/kg/injection, schedule: Q01DX010 (ip), vehicle: saline): 70 % of control

SMILES: CC(=O)NCCSC(=O)C(=O)SCCNC(C)=O
- T/C [8]: 72 % of control
- T/C [1]: 111 % of control
- T/C [2]: 65 % of control

SMILES: Cn1c(=O)c2[nH]c(CCCc3nc4c([nH]3)c(=O)n(C)c(=O)n4C)nc2n(C)c1=O
- T/C [4]: 101 % of control
- T/C [5]: 68 % of control

SMILES: CC(C)CCSc1nc(N)nc2nc[nH]c12
- T/C (dose: 45.0 mg/kg/injection, schedule: Q01DX010 (ip), vehicle: carboxymethylcellulose (CMC)): 74 % of control
- T/C (dose: 90.0 mg/kg/injection, schedule: Q01DX010 (ip), vehicle: carboxymethylcellulose (CMC)): 70 % of control
- T/C (dose: 180.0 mg/kg/injection, schedule: Q01DX010 (ip), vehicle: carboxymethylcellulose (CMC)): 94 % of control

SMILES: CC(C)CCS(=O)(=O)OCCCCOS(=O)(=O)CCC(C)C
- T/C [6]: 57 % of control
- T/C [7]: 94 % of control
- T/C (dose: 250.0 mg/kg/injection, schedule: Q01DX010 (ip), vehicle: carboxymethylcellulose (CMC)): 57 % of control
- T/C (dose: 500.0 mg/kg/injection, schedule: Q01DX010 (ip), vehicle: carboxymethylcellulose (CMC)): 75 % of control

SMILES: CC(C)NCC(=O)c1ccc(O)c(O)c1
- T/C (dose: 50.0 mg/kg/injection, schedule: Q01DX010 (ip), vehicle: saline): 75 % of control
- T/C (dose: 100.0 mg/kg/injection, schedule: Q01DX010 (ip), vehicle: saline): 59 % of control
- T/C (dose: 200.0 mg/kg/injection, schedule: Q01DX010 (ip), vehicle: saline): 90 % of control

SMILES: NC(CCSCc1ccc(N(CCCl)CCCl)cc1)C(=O)O (stereo not drawn)
- T/C (dose: 4.5 mg/kg/injection, schedule: Q01DX010 (ip), vehicle: saline): 90 % of control
- T/C (dose: 9.0 mg/kg/injection, schedule: Q01DX010 (ip), vehicle: saline): 94 % of control
- T/C (dose: 16.0 mg/kg/injection, schedule: Q01DX010 (ip), vehicle: saline): 84 % of control
- T/C (dose: 18.0 mg/kg/injection, schedule: Q01DX010 (ip), vehicle: saline): 52 % of control
- T/C [11]: 63 % of control
- T/C (dose: 36.0 mg/kg/injection, schedule: Q01DX010 (ip), vehicle: saline): 55 % of control
